Assay results taken from ChEMBL document CHEMBL1201862, “PubChem BioAssay data set” (2004).
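Step 1: Grow cells in 96-well plates. Step 2: Expose to compound for 48 hours at 5 concentrations. Step 3: Interpolate endpoints linearly; if unreached, use highest concentration. Here, GI50 denotes the concentration required for 50% inhibition of growth.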 Active and inactive are the calls of the source. Rule as the data show it: active = GI50 up to about 1.1 µM and inactive = higher.

How the values were obtained:
Assay in all cases: NCI tumour cell line growth inhibition, 48 h
Hs-578T = test system: Hs-578T
HOP-92 = test system: HOP-92
SNB-75 = test system: SNB-75
SK-MEL-28 = test system: SK-MEL-28
MDA-MB-435 = test system: MDA-MB-435
UACC-257 = test system: UACC-257
M14 = test system: M14
EKVX = test system: EKVX
T47D = test system: T47D
IGROV-1 = test system: IGROV-1
PC-3 = test system: PC-3
CAKI-1 = test system: CAKI-1
HCC 2998 = test system: HCC 2998
OVCAR-3 = test system: OVCAR-3
ACHN = test system: ACHN
SK-MEL-5 = test system: SK-MEL-5
SW-620 = test system: SW-620
A549 = test system: A549
NCI-H460 = test system: NCI-H460
HCT-116 = test system: HCT-116

Compound	GI50 (Hs-578T)	GI50 (HOP-92)	GI50 (SNB-75)	GI50 (SK-MEL-28)	GI50 (MDA-MB-435)	GI50 (UACC-257)	GI50 (M14)	GI50 (EKVX)	GI50 (T47D)	GI50 (IGROV-1)	GI50 (PC-3)	GI50 (CAKI-1)	GI50 (HCC 2998)	GI50 (OVCAR-3)	GI50 (ACHN)	GI50 (SK-MEL-5)	GI50 (SW-620)	GI50 (A549)	GI50 (NCI-H460)	GI50 (HCT-116)
CCCCCCCCCc1cc(=O)c2c(O)cc(O)cc2o1	16.7 µM (inactive)	16.3 µM (inactive)	18.1 µM (inactive)	19.2 µM (inactive)	18.7 µM (inactive)	19.7 µM (inactive)	18.1 µM (inactive)	18.7 µM (inactive)	22.2 µM (inactive)	16.5 µM (inactive)	18 µM (inactive)	> 100 µM (inactive)	21.1 µM (inactive)	15.7 µM (inactive)	19 µM (inactive)	19.8 µM (inactive)	27.9 µM (inactive)	18.5 µM (inactive)	22.6 µM (inactive)	21.7 µM (inactive)
COC(=O)C1=C(O)C(C(=O)OC)[C@]2(O)[C@H](C(=O)OC)[C@H]1C[C@@H](c1c(Cl)cccc1Cl)[C@H]2C(=O)OC (stereo not given in full)	3.35 µM (inactive)	2.69 µM (inactive)	2.23 µM (inactive)	2.24 µM (inactive)	1.33 µM (inactive)	2.08 µM (inactive)	1.55 µM (inactive)	4.25 µM (inactive)	3.79 µM (inactive)	2.16 µM (inactive)	1.99 µM (inactive)	2.83 µM (inactive)	1.66 µM (inactive)	2.77 µM (inactive)	2.19 µM (inactive)	1.66 µM (inactive)	2.55 µM (inactive)	2.23 µM (inactive)	2.31 µM (inactive)	1.97 µM (inactive)
COC1CCC(OS(C)(=O)=O)C(C)O1 (stereo not given)	> 10 µM (inactive)	5.89 µM (inactive)	> 10 µM (inactive)	> 10 µM (inactive)	> 10 µM (inactive)	> 10 µM (inactive)	> 10 µM (inactive)	> 10 µM (inactive)	> 10 µM (inactive)	> 10 µM (inactive)	> 10 µM (inactive)	> 10 µM (inactive)	> 10 µM (inactive)	> 10 µM (inactive)	> 10 µM (inactive)	> 10 µM (inactive)	> 10 µM (inactive)	> 10 µM (inactive)	> 10 µM (inactive)	> 10 µM (inactive)
OCCN(CCO)c1ccc2c(C(F)(F)F)cc(C(F)(F)F)nc2n1	> 100 µM (inactive)	> 100 µM (inactive)	> 100 µM (inactive)	> 100 µM (inactive)	> 100 µM (inactive)	> 100 µM (inactive)	> 100 µM (inactive)	> 100 µM (inactive)	> 100 µM (inactive)	> 100 µM (inactive)	> 100 µM (inactive)	> 100 µM (inactive)	> 100 µM (inactive)	> 100 µM (inactive)	> 100 µM (inactive)	95.7 µM (inactive)	> 100 µM (inactive)	> 77.3 µM (inactive)	> 100 µM (inactive)	> 100 µM (inactive)
CC(C)(C)OC(=O)NC1CC2(C=C(Br)C(=O)C(Br)=C2)OC1=O (stereo not given)	22 µM (inactive)	12.5 µM (inactive)	21.5 µM (inactive)	21.1 µM (inactive)	7.71 µM (inactive)	5.4 µM (inactive)	7.14 µM (inactive)	12.9 µM (inactive)	0.536 µM (active)	16.4 µM (inactive)	13.9 µM (inactive)	3.48 µM (inactive)	11.6 µM (inactive)	10.4 µM (inactive)	4.23 µM (inactive)	16.4 µM (inactive)	2.01 µM (inactive)	20.2 µM (inactive)	18.4 µM (inactive)	3.28 µM (inactive)
COc1cc2ncnc(Nc3cccc(Cl)c3)c2cc1OC [TYRPHOSTIN AG-1478]	3.57 µM (inactive)	5.19 µM (inactive)	2.57 µM (inactive)	9.38 µM (inactive)	11.9 µM (inactive)	7.57 µM (inactive)	7.16 µM (inactive)	0.392 µM (active)	9.55 µM (inactive)	0.0736 µM (active)	12.6 µM (inactive)	0.248 µM (active)	13.6 µM (inactive)	3.05 µM (inactive)	0.0446 µM (active)	6.1 µM (inactive)	16.1 µM (inactive)	10.6 µM (inactive)	13.4 µM (inactive)	17.6 µM (inactive)
